According to the supplement of paper PMC11451515:

System: NOMO1
Assay: cell viability relative to DMSO control; higher = less cytotoxic
Conditions: 48 h
Outline: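 Viability, reported as a per-plate percentage of DMSO wells with cell-free wells as background, came from CellTiter-Glo One luminescence. Reading took place after 48 h at 37°C. Before that, NOMO1 or SEM (500 cells/well) or P12-Ichikawa (1000 cells/well) leukemia cells, adapted for at least four passages in each medium, were seeded in 1536-well plates (5 μl) and pin-dosed with library compounds in DMSO, 47 μM to 0.79 nM over 11 threefold points.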

[1] = HPLM + 10% dialyzed FBS, 0.000781 µM
[2] = HPLM + 10% dialyzed FBS, 0.00234 µM
[3] = HPLM + 10% dialyzed FBS, 0.00702 µM
[4] = HPLM + 10% dialyzed FBS, 0.0211 µM
[5] = HPLM + 10% dialyzed FBS, 0.0632 µM
[6] = HPLM + 10% dialyzed FBS, 0.19 µM
[7] = HPLM + 10% dialyzed FBS, 0.569 µM
[8] = HPLM + 10% dialyzed FBS, 1.71 µM
[9] = HPLM + 10% dialyzed FBS, 5.12 µM
[10] = HPLM + 10% dialyzed FBS, 15.4 µM
[11] = HPLM + 10% dialyzed FBS, 46.1 µM
[12] = RPMI 5 mM glucose + 10% FBS, 0.000781 µM
[13] = RPMI 5 mM glucose + 10% FBS, 0.00234 µM
[14] = RPMI 5 mM glucose + 10% FBS, 0.00702 µM
[15] = RPMI 5 mM glucose + 10% FBS, 0.0211 µM
[16] = RPMI 5 mM glucose + 10% FBS, 0.0632 µM
[17] = RPMI 5 mM glucose + 10% FBS, 0.19 µM
[18] = RPMI 5 mM glucose + 10% FBS, 0.569 µM
[19] = RPMI 5 mM glucose + 10% FBS, 1.71 µM
[20] = RPMI 5 mM glucose + 10% FBS, 5.12 µM
[21] = RPMI 5 mM glucose + 10% FBS, 15.4 µM
[22] = RPMI 5 mM glucose + 10% FBS, 46.1 µM
[23] = RPMI 5 mM glucose + 10% dialyzed FBS, 0.000781 µM
[24] = RPMI 5 mM glucose + 10% dialyzed FBS, 0.00234 µM
[25] = RPMI 5 mM glucose + 10% dialyzed FBS, 0.00702 µM
[26] = RPMI 5 mM glucose + 10% dialyzed FBS, 0.0211 µM
[27] = RPMI 5 mM glucose + 10% dialyzed FBS, 0.0632 µM
[28] = RPMI 5 mM glucose + 10% dialyzed FBS, 0.19 µM
[29] = RPMI 5 mM glucose + 10% dialyzed FBS, 0.569 µM
[30] = RPMI 5 mM glucose + 10% dialyzed FBS, 1.71 µM
[31] = RPMI 5 mM glucose + 10% dialyzed FBS, 5.12 µM
[32] = RPMI 5 mM glucose + 10% dialyzed FBS, 15.4 µM
[33] = RPMI 5 mM glucose + 10% dialyzed FBS, 46.1 µM

| Compound | cell viability [1] | cell viability [2] | cell viability [3] | cell viability [4] | cell viability [5] | cell viability [6] | cell viability [7] | cell viability [8] | cell viability [9] | cell viability [10] | cell viability [11] | cell viability [12] | cell viability [13] | cell viability [14] | cell viability [15] | cell viability [16] | cell viability [17] | cell viability [18] | cell viability [19] | cell viability [20] | cell viability [21] | cell viability [22] | cell viability [23] | cell viability [24] | cell viability [25] | cell viability [26] | cell viability [27] | cell viability [28] | cell viability [29] | cell viability [30] | cell viability [31] | cell viability [32] | cell viability [33] |
| --- | --- | --- | --- | --- | --- | --- | --- | --- | --- | --- | --- | --- | --- | --- | --- | --- | --- | --- | --- | --- | --- | --- | --- | --- | --- | --- | --- | --- | --- | --- | --- | --- | --- |
| COc1cc2ncnc(Nc3cccc(Cl)c3)c2cc1OC | 83% | 93.2% | 86.9% | 80.6% | 69.7% | 59% | 57% | 41.4% | 39.2% | 36% | 3.63% | 95.7% | 101% | 99.3% | 96.6% | 102% | 85.9% | 82.1% | 57.7% | 48.7% | 39.6% | 34.4% | 100% | 95% | 101% | 101% | 76.2% | 75.1% | 72.9% | 47.7% | 45.8% | 38.9% | 37.5% |
| COc1cc(Cl)cn2c(-c3cccc(NC4CNC4)n3)cnc12 | 123% | 115% | 118% | 142% | 152% | 148% | 141% | 150% | 129% | 129% | 111% |  |  |  |  |  |  |  |  |  |  |  |  |  |  |  |  |  |  |  |  |  |  |
| CCOC(=O)O[C@]1(C(=O)OCCl)CC[C@H]2[C@@H]3CCC4=CC(=O)C=C[C@]4(C)[C@H]3[C@@H](O)C[C@@]21C | 101% | 95.9% | 103% | 105% | 103% | 108% | 110% | 99.3% | 95.3% | 84.3% | 82% | 98.4% | 88.2% | 96.2% | 84.2% | 82.2% | 94.6% | 85.7% | 87.5% | 87.1% | 89.3% | 95% | 88.1% | 95.1% | 93.2% | 87.4% | 91% | 100% | 88.6% | 98.2% | 75.8% | 80.2% | 93.4% |
| O=C1N\C=N/C2=C1C=N[NH]2 | 89.6% | 88.4% | 96.1% | 97% | 97.5% | 86.8% | 97.1% | 103% | 101% | 67.1% | 30% | 77.9% | 87.3% | 83% | 95.4% | 94.9% | 81.7% | 86.5% | 93% | 94.3% | 91.5% | 81% | 71.6% | 78.3% | 69.5% | 84.8% | 70.8% | 91.3% | 83.2% | 88.6% | 89.1% | 81.2% | 71.9% |
| COc1ccc2[nH]cc(CCNC(C)=O)c2c1 | 115% | 115% | 125% | 131% | 114% | 129% | 118% | 119% | 131% | 112% | 114% |  |  |  |  |  |  |  |  |  |  |  |  |  |  |  |  |  |  |  |  |  |  |
| COc1cc(OC)c(C(=O)CCCN2CCCC2)c(OC)c1 |  |  |  |  |  |  |  |  |  |  |  | 132% | 125% | 122% | 127% | 127% | 116% | 120% | 108% | 119% | 98.4% | 106% |  |  |  |  |  |  |  |  |  |  |  |
| N#CC[C@H](C1CCCC1)n1cc(-c2ncnc3[nH]ccc23)cn1 | 117% | 106% | 103% | 91.3% | 105% | 107% | 85.1% | 85.8% | 61.4% | 21.2% | 15.7% | 94.3% | 84.2% | 101% | 78.9% | 82.7% | 79.1% | 87.1% | 78.1% | 91.3% | 43% | 14.8% | 97.1% | 102% | 93.2% | 66% | 108% | 93.8% | 88.7% | 89.9% | 79.9% | 61.2% | 41.2% |
| CCCCCN(CCC12CC3CC(CC(C3)C1)C2)C(=O)NCCCc1ccncc1 | 111% | 120% | 116% | 114% | 115% | 109% | 108% | 93.7% | 111% | 112% | 97.3% | 98.2% | 110% | 107% | 110% | 116% | 113% | 97.8% | 113% | 96.5% | 107% | 98.4% | 104% | 102% | 119% | 120% | 116% | 107% | 116% | 111% | 116% | 94.1% | 99.1% |
| Nc1nc(N)c(N=O)c(OCC2CCCCC2)n1 | 89.8% | 104% | 90.2% | 116% | 94.5% | 99% | 99.5% | 62.5% | 46.9% | 38.9% | 23.4% | 90.3% | 90.2% | 93% | 93.5% | 87.9% | 94% | 91.8% | 76.9% | 61.6% | 48% | 28.2% | 76.6% | 91.8% | 78.8% | 87.9% | 97.9% | 96.9% | 91.2% | 76.8% | 66.8% | 60.4% | 33.8% |
